Data: PubChem BioAssay AID256 (DTP/NCI, 2004)
Values joined by “and” are separate entries in the source; they are usually repeats but may differ in a detail not shown here. Equal values may be shown once. Toxic doses and inconclusive results are not listed. How the source made its calls: active means survival T/C of 150% or more; inactive means T/C below 125% in these data.

Tested on: CD2F1 mice, L1210 leukemia ip, survival T/C
Assay: NCI In Vivo Anticancer Drug Screen. Data for tumor model L1210 Leukemia (intraperitoneal) in CD2F1 (CDF1) mice
Settings: higher = longer survival
In short: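 Implant tumor; dose compound or vehicle; measure endpoint in both groups; report treated divided by control.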

[1] = endpoint: mean survival time, dose: 100.0 mg/kg/injection, schedule: Q04DX003 (ip), vehicle: saline with Tween-80
[2] = endpoint: mean survival time, dose: 200.0 mg/kg/injection, schedule: Q04DX003 (ip), vehicle: saline with Tween-80
[3] = endpoint: mean survival time, dose: 400.0 mg/kg/injection, schedule: Q04DX003 (ip), vehicle: saline with Tween-80
[4] = endpoint: mean survival time, dose: 12.5 mg/kg/injection, schedule: Q01DX005 (ip), vehicle: water
[5] = endpoint: mean survival time, dose: 25.0 mg/kg/injection, schedule: Q01DX005 (ip), vehicle: water
[6] = endpoint: mean survival time, dose: 50.0 mg/kg/injection, schedule: Q01DX005 (ip), vehicle: water
[7] = endpoint: mean survival time, dose: 100.0 mg/kg/injection, schedule: Q01DX005 (ip), vehicle: water
[8] = endpoint: mean survival time, dose: 100.0 mg/kg/injection, schedule: Q01DX009 (ip), vehicle: other
[9] = endpoint: mean survival time, dose: 200.0 mg/kg/injection, schedule: Q01DX009 (ip), vehicle: other
[10] = endpoint: mean survival time, dose: 100.0 mg/kg/injection, schedule: Q01DX009 (ip), vehicle: saline with Tween-80
[11] = endpoint: mean survival time, dose: 200.0 mg/kg/injection, schedule: Q01DX009 (ip), vehicle: saline with Tween-80
[12] = endpoint: mean survival time, dose: 12.5 mg/kg/injection, schedule: Q01DX009 (ip), vehicle: saline with Tween-80
[13] = endpoint: mean survival time, dose: 25.0 mg/kg/injection, schedule: Q01DX009 (ip), vehicle: saline with Tween-80
[14] = endpoint: mean survival time, dose: 50.0 mg/kg/injection, schedule: Q01DX009 (ip), vehicle: saline with Tween-80

Measured: T/C

CCCCCCCCCCCC(=O)Nc1ccc(C(C)C)cc1
inactive: [1] 97 % of control | [2] 96 % of control

CN(Cc1ccc2nc(N)[nH]c(=O)c2n1)c1ccc(C(=O)NC(CCC(=O)O)C(=O)O)cc1 (centres undefined)
inactive: endpoint: mean survival time, dose: 0.5 mg/kg/injection, schedule: Q01DX005 (ip), vehicle: sodium bicarbonate 98 % of control and 101 % of control | endpoint: mean survival time, dose: 1.0 mg/kg/injection, schedule: Q01DX005 (ip), vehicle: sodium bicarbonate 101 % of control and 104 % of control | endpoint: mean survival time, dose: 2.0 mg/kg/injection, schedule: Q01DX005 (ip), vehicle: sodium bicarbonate 101 % of control and 102 % of control | endpoint: mean survival time, dose: 4.0 mg/kg/injection, schedule: Q01DX005 (ip), vehicle: sodium bicarbonate 98 % of control and 102 % of control | endpoint: mean survival time, dose: 8.0 mg/kg/injection, schedule: Q01DX005 (ip), vehicle: sodium bicarbonate 104 % of control and 107 % of control | endpoint: mean survival time, dose: 16.0 mg/kg/injection, schedule: Q01DX005 (ip), vehicle: sodium bicarbonate 102 % of control and 107 % of control

CSCCC(NC(C)=O)C(=O)O.CSCCC(NC(C)=O)C(=O)O.[NH-]C1CCCCC1[NH-].[Pt+2] (centres undefined)
inactive: endpoint: median survival time, dose: 3.12 mg/kg/injection, schedule: Q04DX003 (ip), vehicle: saline 100 % of control | endpoint: median survival time, dose: 6.25 mg/kg/injection, schedule: Q04DX003 (ip), vehicle: saline 100 % of control | endpoint: median survival time, dose: 12.5 mg/kg/injection, schedule: Q04DX003 (ip), vehicle: saline 97 % of control | endpoint: median survival time, dose: 25.0 mg/kg/injection, schedule: Q04DX003 (ip), vehicle: saline 107 % of control | endpoint: median survival time, dose: 50.0 mg/kg/injection, schedule: Q04DX003 (ip), vehicle: saline 93 % of control | endpoint: median survival time, dose: 100.0 mg/kg/injection, schedule: Q04DX003 (ip), vehicle: saline 98 % of control | endpoint: median survival time, dose: 200.0 mg/kg/injection, schedule: Q04DX003 (ip), vehicle: saline 97 % of control

CCCC(=O)NNC(=O)c1ccccn1
inactive: endpoint: mean survival time, dose: 100.0 mg/kg/injection, schedule: Q01DX009 (ip), vehicle: saline sonified 109 % of control | [1] 101 % of control | [2] 104 % of control | [3] 106 % of control

O=P(N1CC1)(N1CC1)N1CC1
inactive: endpoint: mean survival time, dose: 2.0 mg/kg/injection, schedule: Q03DX003 (ip), vehicle: saline 110 % of control | endpoint: mean survival time, dose: 16.0 mg/kg/injection, schedule: Q01DX009 (ip), vehicle: saline 96 % of control

Cc1cc(C(O)CNCCn2cnc3c2c(=O)n(C)c(=O)n3C)ccc1O (centres undefined)
inactive: [4] 103 % of control | [5] 100 % of control | [6] 97 % of control | [7] 100 % of control | endpoint: mean survival time, dose: 200.0 mg/kg/injection, schedule: Q01DX005 (ip), vehicle: water 100 % of control

O=C(O)CCN1CCCc2ccccc21
inactive: [8] 109 % of control | endpoint: mean survival time, dose: 100.0 mg/kg/injection, schedule: Q04DX003 (ip), vehicle: other 95 % of control | [9] 103 % of control | endpoint: mean survival time, dose: 200.0 mg/kg/injection, schedule: Q04DX003 (ip), vehicle: other 107 % of control | endpoint: mean survival time, dose: 400.0 mg/kg/injection, schedule: Q04DX003 (ip), vehicle: other 96 % of control

C=CCOc1ccccc1C(C)=O
inactive: [10] 104 % of control | [11] 107 % of control | endpoint: mean survival time, dose: 400.0 mg/kg/injection, schedule: Q01DX009 (ip), vehicle: saline with Tween-80 107 % of control

CN=C(N)N/N=C(\C)c1ccc2sc3ccc(/C(C)=N/NC(N)=NC)cc3c2c1
inactive: endpoint: median survival time, dose: 25.0 mg/kg/injection, schedule: Q01DX009 (ip), vehicle: saline with Tween-80 113 % of control and 124 % of control | endpoint: median survival time, dose: 50.0 mg/kg/injection, schedule: Q01DX009 (ip), vehicle: saline with Tween-80 112 % of control | endpoint: median survival time, dose: 100.0 mg/kg/injection, schedule: Q01DX009 (ip), vehicle: saline with Tween-80 117 % of control | endpoint: median survival time, dose: 200.0 mg/kg/injection, schedule: Q01DX009 (ip), vehicle: saline with Tween-80 119 % of control | endpoint: median survival time, dose: 400.0 mg/kg/injection, schedule: Q01DX009 (ip), vehicle: saline with Tween-80 119 % of control and 102 % of control

O=C(NNC(=S)Nc1cccc(C(F)(F)F)c1)c1ccncc1
inactive: [12] 91 % of control | [13] 93 % of control | [14] 88 % of control | endpoint: mean survival time, dose: 100.0 mg/kg/injection, schedule: Q04DX002 (ip), vehicle: saline with Tween-80 98 % of control | endpoint: mean survival time, dose: 200.0 mg/kg/injection, schedule: Q04DX002 (ip), vehicle: saline with Tween-80 105 % of control

O=S(=O)(O)C(S(=O)(=O)O)S(=O)(=O)O
inactive: [1] 96 % of control | [2] 97 % of control | [3] 93 % of control

Clc1ccc(N2CSCSC2)cc1
inactive: [14] 95 % of control | [10] 98 % of control | [11] 95 % of control

O=[N+]([O-])c1ccc(Nc2cccc(Cl)c2)c([N+](=O)[O-])c1
inactive: [2] 87 % of control

COc1cc(Cl)ccc1NC(=O)OCCOc1ccc(Br)cc1
inactive: [12] 91 % of control | [13] 87 % of control | [14] 119 % of control and 91 % of control

CCCC(=O)Nc1ncnc2c1nc(NC(=O)CCC)n2C1OC2COP(=O)(O)OC2C1OC(=O)CCC (centres undefined)
inactive: endpoint: mean survival time, dose: 6.25 mg/kg/injection, schedule: Q01DX005 (ip), vehicle: water 97 % of control | [4] 104 % of control | [5] 93 % of control | [6] 97 % of control | [7] 93 % of control

O=c1ccn(C2CC3[O][Sn]([c]4ccccc4)([c]4ccccc4)[O]CC3O2)c(=O)[nH]1 (centres undefined)
inactive: endpoint: mean survival time, dose: 6.25 mg/kg/injection, schedule: Q01DX005 (ip), vehicle: distilled water + Tween-80 104 % of control | endpoint: mean survival time, dose: 12.5 mg/kg/injection, schedule: Q01DX005 (ip), vehicle: distilled water + Tween-80 98 % of control | endpoint: mean survival time, dose: 25.0 mg/kg/injection, schedule: Q01DX005 (ip), vehicle: distilled water + Tween-80 108 % of control | endpoint: mean survival time, dose: 100.0 mg/kg/injection, schedule: Q01DX005 (ip), vehicle: distilled water + Tween-80 90 % of control

ClCC(CCl)N1CCCCC1
inactive: endpoint: mean survival time, dose: 6.25 mg/kg/injection, schedule: Q01DX001 (ip), vehicle: saline 103 % of control | endpoint: mean survival time, dose: 6.25 mg/kg/injection, schedule: Q01DX009 (ip), vehicle: saline sonified 102 % of control | endpoint: mean survival time, dose: 6.25 mg/kg/injection, schedule: Q04DX003 (ip), vehicle: saline 101 % of control | endpoint: mean survival time, dose: 12.5 mg/kg/injection, schedule: Q01DX001 (ip), vehicle: saline 104 % of control | endpoint: mean survival time, dose: 12.5 mg/kg/injection, schedule: Q01DX009 (ip), vehicle: saline sonified 109 % of control | endpoint: mean survival time, dose: 12.5 mg/kg/injection, schedule: Q04DX003 (ip), vehicle: saline 104 % of control | endpoint: mean survival time, dose: 25.0 mg/kg/injection, schedule: Q01DX001 (ip), vehicle: saline 107 % of control | endpoint: mean survival time, dose: 25.0 mg/kg/injection, schedule: Q04DX003 (ip), vehicle: saline 106 % of control

COc1cc2c(cc1O)CCCCC2
inactive: endpoint: mean survival time, dose: 50.0 mg/kg/injection, schedule: Q01DX009 (ip), vehicle: other 100 % of control | [8] 103 % of control | [9] 92 % of control
